Measured values taken from patent US3998963A, “Tertiary butyl substituted carbamoyl oxime pesticides” (priority 1975, dated 1976).

Assays:
Type in all cases: in vivo
[1] = tested on: bean; assay: Phytotoxicity Test, bean; conditions: 2500 parts per million; ten days
Procedure: (§1) Suspensions of the test compouns were prepared by dissolving one gram of compound in 50 milliliters of acetone in which had been dissolved 0.1 gram (10 percent of the weight of compound) of an alkylphenoxy polyethoxyethanol surfactant, as an emulsifying or dispersing agent. The resulting solution was mixed into 150 milliliters of water to give roughly 200 milliliters of a suspension containing the compound in finely divided form. The thus-prepared stock suspension contained 0.5 percent by weight of compound. The test concentrations in parts per million by weight employed in the tests described hereinbelow were obtained by appropriate dilutions of the stock suspension with water. The test procedures were as follows:
(§2) Experiments were also conducted to determine the phytotoxicity of representative compositions with respect to healthy fresh plants. Solutions of the compounds were prepared as described above to provide a concentration of 2500 parts per million of the test compound. The test plants were sprayed in accordance with the procedure described above for the Mite Foliage Spray Test so as to deliver approximately 100 milliliters of test solution to the leaves of each plant tested. The sprayed plants and controls were set aside for approximately one hour to allow the foliage to dry and were then placed in the greenhouse. After ten days the plants were visually inspected to determine the extent of foliage injury. A rating of 1 indicates no perceptible injury; 5 indicates the plant was dead and ratings of 2, 3 and 4 indicate intermediate degrees of injury based upon the number and extent to which leaves were injured.

[2] = tested on: bean, corn, tomato or cotton; assay: Phytotoxicity Test, crop plants overall; conditions: text statement
Procedure: (§3) Each of the new compounds were evaluated in comparison with known similar prior art compounds to determine their comparative pesticidal activity against mites and certain insects, including an aphid, caterpillar, a beetle and a fly. The new compounds were also tested for phytotoxicity on important economic crops including bean, corn, tomato and cotton. The new compounds were further evaluated for mammalian toxicity.
as §1, §2

[3] = tested on: corn; assay: Phytotoxicity Test, corn; conditions: 2500 parts per million; ten days
Procedure: as §1
as §2, with “After ten days the plants were visually inspected to determine the extent of foliage injury. A rating of 1 indicates no perceptible injury; 5 indicates the plant was dead and ratings of 2, 3 and 4 indicate intermediate degrees of injury based upon the number and extent to which leaves were injured.” left out

[4] = tested on: tomato; assay: Phytotoxicity Test, tomato; conditions: 2500 parts per million; ten days
Procedure: as §1
as §2, with “After ten days the plants were visually inspected to determine the extent of foliage injury. A rating of 1 indicates no perceptible injury; 5 indicates the plant was dead and ratings of 2, 3 and 4 indicate intermediate degrees of injury based upon the number and extent to which leaves were injured.” left out

[5] = tested on: insects; assay: Insect toxicity, overall; conditions: text statement
Procedure: as §3, §1
In Table 1 are presented insect and rat toxicity data (bait tests) on a comparative basis of the compounds described above. […] Rat toxicity is also more meaningfully compared on the basis of molar weight LD50 values. The relative efficacy of the parent compounds as compared to the previously known derivatives and as compared to the new compounds of this invention is also shown in Table 1. The ratio of efficacy as contact poisons (immersion/bait) of the compounds tested against Armyworm and House Fly is presented in Table 2 along with the results of the phytotoxicity tests of the compounds on bean, corn, tomato and cotton.

Compound | Phytotoxicity, Bean [1] | phytotoxicity (in words) [2] | other results
CNC(=O)ON=C(C)SC [Compound 1, O-(methylcarbamoyl) S-methyl acetothiolhydroximate] | BuCl 2 | phytotoxic to one or more of the crop plants | –
CNC(=O)ON=C(C)SC(C)C [Compound 2] | Bu 2 | phytotoxic to one or more of the crop plants | Phytotoxicity, Corn [3]: Bu 2
CCSC(C)=NOC(=O)NC [Compound 3] | 2 | – | Phytotoxicity, Tomato [4]: 2
CC(=NOC(=O)N(C)Sc1ccc(C(C)(C)C)cc1)SC(C)C [Compound 9, O-[N-Methyl-N-[4-(t-Butylphenyl)sulfenyl]carbamoyl] S-Isopropyl Thiolacetohydroximate] | – | extremely low phytotoxicity | contact / stomach poison properties for insects (in words) [5]: dramatically superior contact poison characteristics; insect toxicity / pesticidal activity (in words) [5]: dramatic improvement in activity against all insect species, again with the exception of house fly; contact / stomach poison properties for insects (in words) ([5]; listed as O-[ N-methyl-N-[4-(t-butylphenyl) sulfenyl] carbamoyl] S-isopropyl thiolacetohyd): outstanding stomach poison against insects and also appears to be the most powerful contact poison for insects among all of the compositions tested
CC(=NOC(=O)N(C)Sc1ccc(Cl)cc1)SC(C)C [Compound 5] | Trif. 3 | – | –
CSC(C)=NOC(=O)N(C)Sc1ccc(Cl)cc1 [Compound 4] | Trif. 3 | – | –
CSC(C)=NOC(=O)N(C)Sc1ccc(C(C)(C)C)cc1 [Compound 8, O-[N-Methyl-N-[4-(t-butylphenyl)sulfenyl]carbamoyl] S-Methyl Acetothiolhydroximate] | – | very low phytotoxicity | insect toxicity / pesticidal activity (in words) [5]: dramatic improvement in toxicity against all insects tested with the exception of house fly; insect toxicity / pesticidal activity (in words) ([5]; listed as O-[ N-methyl-N-[4-(t-butylphenyl)sulfenyl] carbamoyl] S-methyl acetothiolhydroxi): exceptionally high insecticidal activity against aphid, armyworm and bean beetle
